Laboratory results from US9993494B2, “Compositions and methods for treating fibrotic disease” (eFFECTOR Therapeutics, Inc., priority 2014, dated 2018).

Test system: normal human lung fibroblasts
Test: Ribosomal profiling: translational efficiency in TGFβ-treated fibroblasts
Format: cell-based
Settings: TGFβ-treated fibroblasts
Outline: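 Genome-wide RPF and total RNA libraries (ARTseq, RNA-Seq) were made from lysates of cycloheximide-treated, PBS-washed cells. After trimming and human-genome mapping, per-gene coding-region counts were compared between RPF and RNA for translational efficiency. Genes scoring low in either fraction were dropped.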

In the case of `COC(=O)[C@H]1[C@@H](O)[C@@]2(O)c3c(OC)cc(O[C@@H]4O[C@@H]([C@H](O)CO)CO[C@H]4OC)cc3O[C@@]2(c2ccc(OC)cc2)[C@@H]1c1ccccc1` [Silvestrol], the “effect in renormalizing the translational profile of the gene” value (gene RPS6KA5 (ENSG00000100784)) was “+ (+ = 0.9 to 1.5)”, the “effect in renormalizing the translational profile of the gene” value (gene RPS7 (ENSG00000171863)) was “− (− = <0.9)” and the “effect in renormalizing the translational profile of the gene” value (gene RPS8 (ENSG00000142937)) was “− (− = <0.9)”. The “effect in renormalizing the translational profile of the gene” value (gene RPS9 (ENSG00000170889)) was “− (− = <0.9)”, the “effect in renormalizing the translational profile of the gene” value (gene RPS10 (ENSG00000124614)) was “− (− = <0.9)” and the “effect in renormalizing the translational profile of the gene” value (gene RPS11 (ENSG00000142534)) was “− (− = <0.9)”. The “effect in renormalizing the translational profile of the gene” value (gene RPS12 (ENSG00000112306)) was “− (− = <0.9)”, the “effect in renormalizing the translational profile of the gene” value (gene RPS13 (ENSG00000110700)) was “− (− = <0.9)” and the “effect in renormalizing the translational profile of the gene” value (gene RPS14 (ENSG00000164587)) was “− (− = <0.9)”. For the same molecule, the “effect in renormalizing the translational profile of the gene” value (gene RPS15 (ENSG00000115268)) was “− (− = <0.9)”, the “effect in renormalizing the translational profile of the gene” value (gene RPS15A (ENSG00000134419)) was “− (− = <0.9)” and the “effect in renormalizing the translational profile of the gene” value (gene RPS16 (ENSG00000105193)) was “− (− = <0.9)”. The “effect in renormalizing the translational profile of the gene” value (gene RPS18 (ENSG00000231500)) was “− (− = <0.9)”, the “effect in renormalizing the translational profile of the gene” value (gene RPS19 (ENSG00000105372)) was “− (− = <0.9)” and the “effect in renormalizing the translational profile of the gene” value (gene RPS20 (ENSG00000008988)) was “− (− = <0.9)”. For the same molecule, the “effect in renormalizing the translational profile of the gene” value (gene RPS21 (ENSG00000171858)) was “− (− = <0.9)”, the “effect in renormalizing the translational profile of the gene” value (gene RPS23 (ENSG00000186468)) was “− (− = <0.9)” and the “effect in renormalizing the translational profile of the gene” value (gene RPS24 (ENSG00000138326)) was “− (− = <0.9)”. The “effect in renormalizing the translational profile of the gene” value (gene RPS25 (ENSG00000118181)) was “− (− = <0.9)”, the “effect in renormalizing the translational profile of the gene” value (gene RPS26 (ENSG00000197728)) was “− (− = <0.9)” and the “effect in renormalizing the translational profile of the gene” value (gene RPS27 (ENSG00000177954)) was “− (− = <0.9)”. The “effect in renormalizing the translational profile of the gene” value (gene RPS27A (ENSG00000143947)) was “− (− = <0.9)”, the “effect in renormalizing the translational profile of the gene” value (gene RPS28 (ENSG00000233927)) was “− (− = <0.9)” and the “effect in renormalizing the translational profile of the gene” value (gene RPS29 (ENSG00000213741)) was “− (− = <0.9)”. The “effect in renormalizing the translational profile of the gene” value (gene RPSA (ENSG00000168028)) was “− (− = <0.9)”, the “effect in renormalizing the translational profile of the gene” value (gene RTN2 (ENSG00000125744)) was “− (− = <0.9)” and the “effect in renormalizing the translational profile of the gene” value (gene SEMA3A (ENSG00000075213)) was “− (− = <0.9)”. For the same molecule, the “effect in renormalizing the translational profile of the gene” value (gene SGIP1 (ENSG00000118473)) was “+ (+ = 0.9 to 1.5)”, the “effect in renormalizing the translational profile of the gene” value (gene SHC3 (ENSG00000148082)) was “− (− = <0.9)” and the “effect in renormalizing the translational profile of the gene” value (gene SLC2A12 (ENSG00000146411)) was “++ (++ = 1.5 to 2.0)”. For the same molecule, the “effect in renormalizing the translational profile of the gene” value (gene SLC7A7 (ENSG00000155465)) was “− (− = <0.9)”, the “effect in renormalizing the translational profile of the gene” value (gene SLC15A3 (ENSG00000110446)) was “− (− = <0.9)” and the “effect in renormalizing the translational profile of the gene” value (gene SLC25A6 (ENSG00000169100)) was “− (− = <0.9)”. For the same molecule, the “effect in renormalizing the translational profile of the gene” value (gene SLC40A1 (ENSG00000138449)) was “− (− = <0.9)”, the “effect in renormalizing the translational profile of the gene” value (gene SMO (ENSG00000128602)) was “− (− = <0.9)” and the “effect in renormalizing the translational profile of the gene” value (gene SNRPA (ENSG00000077312)) was “+ (+ = 0.9 to 1.5)”. The “effect in renormalizing the translational profile of the gene” value (gene SOX5 (ENSG00000134532)) was “− (− = <0.9)”, the “effect in renormalizing the translational profile of the gene” value (gene SOX6 (ENSG00000110693)) was “− (− = <0.9)” and the “effect in renormalizing the translational profile of the gene” value (gene SPATA6 (ENSG00000132122)) was “− (− = <0.9)”. The “effect in renormalizing the translational profile of the gene” value (gene STAMBPL1 (ENSG00000138134)) was “+ (+ = 0.9 to 1.5)”, the “effect in renormalizing the translational profile of the gene” value (gene STS (ENSG00000101846)) was “− (− = <0.9)” and the “effect in renormalizing the translational profile of the gene” value (gene SYNE2 (ENSG00000054654)) was “− (− = <0.9)”. For the same molecule, the “effect in renormalizing the translational profile of the gene” value (gene TAF1D (ENSG00000166012)) was “− (− = <0.9)”, the “effect in renormalizing the translational profile of the gene” value (gene TDG (ENSG00000139372)) was “− (− = <0.9)” and the “effect in renormalizing the translational profile of the gene” value (gene TEN1 (ENSG00000257949)) was “+ (+ = 0.9 to 1.5)”. The “effect in renormalizing the translational profile of the gene” value (gene TET2 (ENSG00000168769)) was “− (− = <0.9)”, the “effect in renormalizing the translational profile of the gene” value (gene TET3 (ENSG00000187605)) was “− (− = <0.9)” and the “effect in renormalizing the translational profile of the gene” value (gene TGFBI (ENSG00000120708)) was “− (− = <0.9)”. For the same molecule, the “effect in renormalizing the translational profile of the gene” value (gene THBS3 (ENSG00000169231)) was “+ (+ = 0.9 to 1.5)”, the “effect in renormalizing the translational profile of the gene” value (gene THG1L (ENSG00000113272)) was “− (− = <0.9)” and the “effect in renormalizing the translational profile of the gene” value (gene TIMM9 (ENSG00000100575)) was “− (− = <0.9)”. For the same molecule, the “effect in renormalizing the translational profile of the gene” value (gene TKT (ENSG00000163931)) was “− (− = <0.9)”, the “effect in renormalizing the translational profile of the gene” value (gene TMTC1 (ENSG00000133687)) was “+++ (+++ = >2.0)” and the “effect in renormalizing the translational profile of the gene” value (gene TOMM7 (ENSG00000196683)) was “− (− = <0.9)”. The “effect in renormalizing the translational profile of the gene” value (gene TOP2A (ENSG00000131747)) was “+++ (+++ = >2.0)”, the “effect in renormalizing the translational profile of the gene” value (gene TPGS1 (ENSG00000141933)) was “− (− = <0.9)” and the “effect in renormalizing the translational profile of the gene” value (gene TPM2 (ENSG00000198467)) was “− (− = <0.9)”. For the same molecule, the “effect in renormalizing the translational profile of the gene” value (gene TPT1 (ENSG00000133112)) was “− (− = <0.9)”, the “effect in renormalizing the translational profile of the gene” value (gene TRERF1 (ENSG00000124496)) was “+ (+ = 0.9 to 1.5)” and the “effect in renormalizing the translational profile of the gene” value (gene UBA52 (ENSG00000221983)) was “− (− = <0.9)”. The “effect in renormalizing the translational profile of the gene” value (gene UQCRB (ENSG00000156467)) was “− (− = <0.9)”, the “effect in renormalizing the translational profile of the gene” value (gene UTRN (ENSG00000152818)) was “− (− = <0.9)” and the “effect in renormalizing the translational profile of the gene” value (gene VIM (ENSG00000026025)) was “− (− = <0.9)”. For the same molecule, the “effect in renormalizing the translational profile of the gene” value (gene ZNF581 (ENSG00000171425)) was “− (− = <0.9)” and the “effect in renormalizing the translational profile of the gene” value (gene ZNF608 (ENSG00000168916)) was “− (− = <0.9)”.
